Reference: patent US11744816B2, “Fixed dose combinations and formulations comprising ETC1002 and ezetimibe and methods of treating or reducing the risk of cardiovascular disease” (Esperion Therapeutics, Inc., priority 2015, dated 2023)

Assays:
[1] = test system: hypercholesterolemic patients; assay: Phase 2b double-blind trial: percent changes from baseline to week 12 in lipids and CRP; type: in vivo, human
Protocol: LDL-C was calculated using the Friedewald equation.
The primary endpoint was the percent change from baseline to week 12 in calculated LDL-C in patients treated with ETC-1002 monotherapy versus those treated with EZE alone. Secondary endpoints included the dose-response relationship between ETC-1002 and the percent change in LDL-C from baseline to week 12, the percent change in LDL-C from baseline to week 12 in patients treated with ETC-1002 plus EZE versus those treated with EZE alone, and the percent change from baseline to week 12 for all treatment groups in LDL particle number, apolipoprotein B, total cholesterol, non-high-density lipoprotein cholesterol (non-HDL-C), HDL-C, HDL particle number, apolipoprotein A-I, triglycerides, very-low-density lipoprotein (VLDL) particle number, and high-sensitivity C-reactive protein (CRP). Lipoprotein particle number was measured using nuclear magnetic resonance […].
An analysis of covariance was used to compare each ETC-1002 treatment group with EZE monotherapy for each of the efficacy endpoints. The primary model included the effects of treatment and statin intolerance and the baseline value as a covariate. Baseline was defined as the mean of values from weeks −1 and 0 for LDL-C, non-HDL-C, total cholesterol, HDL-C, and triglycerides. For all other lipid and biomarker measures, baseline was defined as the last value before the first dose of study drug. Missing values at week 12 were imputed using the last-observation-carried-forward procedure. When LDL-C could not be calculated (i.e., triglycerides >400 mg/dL), beta-quantification measurements were used to determine LDL-C values. Least-squares (LS) means and standard errors were obtained for each treatment group; differences in LS means and p-values were obtained for the treatment comparisons. Graphical methods (e.g., normal probability plot and histogram of residuals, plot of residuals vs. predicted values) or analytical methods (e.g., Shapiro-Wilk test), or both, were used to assess the model assumptions. Because of departures from normality observed in the parameters of triglycerides, CRP, and VLDL particle number, nonparametric analyses were performed for these measures, with p-values obtained from the Wilcoxon rank-sum test and median values presented.
Percent changes from baseline in LDL-C also were summarized by statin-tolerance subgroup. To assess the dose-response relationship for ETC-1002 monotherapy, the primary analysis of covariance model was used for the comparison of the ETC-1002 120 mg and ETC-1002 180 mg. Statistical testing of the efficacy endpoints was 2-sided and conducted at the 5% level of significance with no adjustment for multiple comparisons.

[2] = test system: hypercholesterolemic patients; assay: Phase 2b double-blind trial: safety, treatment-emergent adverse events and laboratory abnormalities
Protocol: The study population included both statin-tolerant and statin-intolerant participants. Statin intolerance was defined as the inability to tolerate ≥2 statins because of muscle-related symptoms such as pain, weakness, or cramping that began or increased during statin therapy and resolved on statin discontinuation. At least 1 statin must have been administered at the lowest approved daily dose, defined as rosuvastatin 5 mg, atorvastatin 10 mg, simvastatin 10 mg, lovastatin 20 mg, pravastatin 40 mg, fluvastatin 40 mg, or pitavastatin 2 mg. Treatment with less than the lowest approved daily dose of a statin (i.e., skipping days) was considered equivalent to not tolerating 1 statin at the lowest approved daily dose.
Patients underwent a 5-week washout of all lipid-regulating drugs and dietary supplements and abstained from these drugs and supplements throughout the study. Patients also underwent a 5-week patient-only-blinded placebo run-in during the screening period (week −5 to week 0). This single-blind placebo run-in period was used to eliminate patients with muscle-related AEs during placebo treatment. Patients reporting new or worsening, unexplained muscle-related AEs during this run-in period were excluded from the study.
Patients were stratified (1:1) by history of statin intolerance and randomized at week 0 in a 4:4:4:1:1 ratio to once-daily treatment with capsules containing ETC-1002 120 mg, ETC-1002 180 mg, EZE, ETC-1002 120 mg plus EZE, or ETC-1002 180 mg plus EZE.
The safety of ETC-1002 was assessed using treatment-emergent AEs; hematology, serum chemistry, and urinalysis laboratory values; physical examination findings, vital sign measurements, electrocardiogram (ECG) readings; weight; and ankle and waist circumference measurements. AEs were coded using the Medical Dictionary for Regulatory Activities version 16.0 and evaluated by the investigator for severity and relation to study drug. Muscle-related AEs were defined as those from the system organ class of musculoskeletal and connective tissue disorders, except for those that were not obviously muscle related Terms included in the muscle-related AFE analysis were selected from this system organ class after database lock and before unblinding.
Safety analyses were performed on the safety population, which included randomized patients who received at least 1 dose of study drug. Baseline patient characteristics were summarized for the safety population by treatment group and statin-tolerance subgroup.
Muscle-related AEs also were summarized by statin-tolerance subgroup.

[3] = EZE 10 mg once daily, 12 weeks, mITT, LS mean ± SE
[4] = EZE 10 mg once daily, 12 weeks, safety population
[5] = EZE 10 mg once daily, 12 weeks, statin-intolerant patients
[6] = EZE 10 mg once daily, 12 weeks, statin-tolerant patients

SMILES: O=C1[C@H](CC[C@H](O)c2ccc(F)cc2)[C@@H](c2ccc(O)cc2)N1c1ccc(F)cc1 [EZE, (3R,4S)-1-(4-fluorophenyl)-3-[(3S)-3-(4-fluorophenyl)-3-hydroxypropyl]-4-(4-hydroxyphenyl)azetidin-2-one, reference compound]
- Percent change from baseline to week 12 in Apolipoprotein A-I [1, 3]: 2.0 ± 1.1%
- Percent change from baseline to week 12 in Apolipoprotein B [1, 3]: −15.2 ± 1.2%
- Percent change from baseline to week 12 in HDL particle number [1, 3]: 6.7 ± 1.3%
- Percent change from baseline to week 12 in HDL-C [1, 3]: 5.0 ± 1.4%
- Percent change from baseline to week 12 in LDL particle number [1, 3]: −12.7 ± 1.7%
- Percent change from baseline to week 12 in LDL-C [1, 3]: −21.2 ± 1.3%
- Percent change from baseline to week 12 in Non-HDL-C [1, 3]: −18.7 ± 1.2%
- Percent change from baseline to week 12 in Total cholesterol [1, 3]: −14.3 ± 0.9%
- Percent change from baseline to week 12 in VLDL particle number ([1]; EZE 10 mg once daily, 12 weeks, mITT, median (interquartile range)): −12.6 (63.4) %
- CRP reduction ([1]; EZE alone): 10%
- HDL-C increase ([1]; EZE alone, week 12): 5%
- Alanine aminotransferase or aspartate aminotransferase, or both, increased >3 times the upper limit of normal at any measurement ([2]; EZE): 1 patients
- Serious AEs reported (events) ([2]; EZE): transient ischemic attack
- Most common AEs: ALT increased [2, 4]: 1 (1%) n (%)
- Most common AEs: AST increased [2, 4]: 0 n (%)
- Most common AEs: Arthralgia [2, 4]: 4 (4%) n (%)
- Most common AEs: Back pain [2, 4]: 8 (8%) n (%)
- Most common AEs: Blood CK increased [2, 4]: 1 (1%) n (%)
- Most common AEs: Constipation [2, 4]: 1 (1%) n (%)
- Most common AEs: Headache [2, 4]: 1 (1%) n (%)
- Most common AEs: Myalgia [2, 4]: 6 (6%) n (%)
- Most common AEs: Nasopharyngitis [2, 4]: 4 (4%) n (%)
- Most common AEs: Upper respiratory tract infection [2, 4]: 1 (1%) n (%)
- Most common AEs: Urinary tract infection [2, 4]: 6 (6%) n (%)
- Treatment-emergent AEs: Any AE(s) [2, 4]: 53 (54%) n (%)
- Treatment-emergent AEs: Discontinuation due to AE(s) [2, 4]: 8 (8%) n (%)
- Treatment-emergent AEs: Serious AE(s) [2, 4]: 1 (1%) n (%)
- Treatment-emergent AEs: Study drug-related AE(s) [2, 4]: 19 (19%) n (%)
- Any muscle-related AE [2, 5]: 9 (18%) n (%)
- Muscle-related AE leading to discontinuation [2, 5]: 5 (10%) n (%)
- Muscle-related AEs: Muscle spasms [2, 5]: 1 (2%) n (%)
- Muscle-related AEs: Muscular weakness [2, 5]: 1 (2%) n (%)
- Muscle-related AEs: Musculoskeletal chest pain [2, 5]: 0 n (%)
- Muscle-related AEs: Musculoskeletal stiffness [2, 5]: 1 (2%) n (%)
- Muscle-related AEs: Myalgia [2, 5]: 6 (12%) n (%)
- Muscle-related AEs: Pain in extremity [2, 5]: 3 (6%) n (%)
- Muscle-related AEs: Sensation of heaviness [2, 5]: 1 (2%) n (%)
- Any muscle-related AE [2, 6]: 3 (6%) n (%)
- Muscle-related AE leading to discontinuation [2, 6]: 1 (2%) n (%)
- Muscle-related AEs: Muscle spasms [2, 6]: 2 (4%) n (%)
- Muscle-related AEs: Musculoskeletal pain [2, 6]: 1 (2%) n (%)
- Muscle-related AEs: Myalgia [2, 6]: 0 n (%)
- Myalgia, patients affected ([2]; EZE alone, entire study population): 6%
